# Reference: US7618984B2, “Sulfonamide compound” (Asahi Kasei Pharma Corporation, priority 2005, dated 2009)
# pIC50: −log10 of the molar value. Structures can show the parent of a compound that is named as a salt.
# Tests used:
# [1] = system: rabbit intraocular pressure; experiment: Rabbit intraocular pressure reduction enhancing action, combination use (Test Example 6-1); format: in vivo, Japanese white rabbit; conditions: 50 μL, difference of left and right eyes, 2, 4 and 6 hours
# Experimental: However, the effect is not limited to the 19-1 compound, and the ophthalmic solution concentration of the 19-1 compound is not limited to those used in this test example. Moreover, as for the test compound used for combination use, similar effect can be obtained also with the compounds of the present invention represented with the example numbers mentioned in Test Example 2.
# As a test compound, the 19-1 compound was dissolved in physiological saline, and the solution was neutralized by addition of sodium hydroxide (pH 7.0 to 8.0) to prepare a 0.01 weight % aqueous solution (19-1 compound aqueous solution). As the drugs for combination use, isopropyl unoprostone (trade name: Rescula, Santen Pharmaceutical) was used as a prostaglandin-related drug, and brinzolamide hydrochloride (trade name: Azopt, Alcon Japan) was used as […], as the marketed formulations as they were.
# A Japanese white rabbit having a body weight of about 2 kg was placed in a positioner and naturalized for one week before the experiment. An opthalmologic local anesthesant (Benoxil) was administered to both eyes, and then intraocular pressure before instillation was measured by using a tonometer (Classic 30, Solan). A test aqueous solution or the drug for combination use was administered to the left eye, and the right eye was not treated (control eye). The test groups consisted of (1) control group, (2) group instilled only with the 19-1 compound aqueous solution (single drug group 1), (3) group instilled only with the drug for combination use (single drug group 2), and (4) group instilled with the drug for combination use and the 19-1 compound aqueous solution (combination use group), and six rabbits were used for each group. As for the rabbits of these groups, 50 μL of physiological saline was first instilled to the control group, single drug group 1, and single drug group 2, and the drug for combination use was first instilled in the same volume to the combination use group. […] The intraocular pressure thereafter was measured for each group 2, 4 and 6 hours after the second administration of the test compound, and the difference of the measured values for the left and right eyes at each measurement time was considered an intraocular pressure reduction value of each group. The largest difference of the intraocular pressure values for the left and right eyes among those of the measured values of the measurement times was considered the maximum intraocular pressure reduction value (max ΔIOP) of each drug group.
# [2] = system: rabbit intraocular pressure; experiment: Rabbit intraocular pressure reduction enhancing action, combination with timolol maleate (Test Example 6-2); format: in vivo, Japanese white rabbit; conditions: 0.01 weight % 19-1 compound aqueous solution and/or timolol maleate (Timoptol), 50 μL; difference relative to the control group, 1, 2 and 4 hours
# Experimental: As a test compound, the 19-1 compound was dissolved in physiological saline, and the solution was neutralized by addition of sodium hydroxide (pH 7.0 to 8.0) to prepare a 0.01 weight % aqueous solution (19-1 compound aqueous solution). As a drug for combination use, timolol maleate (trade name: Timoptol, Santen Pharmaceutical) was used as an adrenergic receptor β blocker, as the marketed formulation as it was.
# A Japanese white rabbit having a body weight of about 2 kg was placed in a positioner and naturalized for one week before the experiment. An opthalmologic local anesthesant (Benoxil) was administered to both eyes, and then intraocular pressure before instillation was measured by using a tonometer (Classic 30, Solan). […] The intraocular pressure thereafter was measured for each group 1, 2 and 4 hours after the second administration of the test compound, and the difference of the measured values at each measurement time for the each group and the control group was considered an intraocular pressure reduction value of each group. The largest difference of the intraocular pressure values relative to the control group among those of the measured values of the measurement times was considered the maximum intraocular pressure reduction value (max ΔIOP) of each drug group.
# [3] = system: phosphorylation of myosin regulatory light chain; experiment: Inhibitory action on phosphorylation of myosin regulatory light chain (Test Example 1); format: cell-based; conditions: Neutrophil, 5 min; human peripheral blood neutrophils, 25° C. for 5 minutes; read-out: IC50, compound concentration providing a phosphorylation inhibition ratio of 50% (myosin regulatory light chain)
# Experimental: A volume of 50 to 100 ml of peripheral blood collected from healthy volunteers was centrifuged by using Mono-Poly separator solution (Dainippon Pharmaceutical) to prepare a neutrophil containing fraction. The neutrophils were washed with PBS(−) and resuspended in Hanks' Balanced Salt Solution (HBSS+, Gibco) to prepare a cell suspension (8×10^6/ml). The cell suspension was diluted to 5×10^6/ml, introduced into Eppendorf tubes in a volume of 0.4 ml each, then 0.1 ml each of solutions of a test compound at various concentrations were added to the suspension and allowed to react at 25° C. for 5 minutes. After the reaction, 0.1 ml of trichloroacetic acid solution was added to each reaction mixture, the reaction mixture was gently shaken and centrifuged at 12,000 rpm (4° C., 5 minutes), and the supernatant was removed. Subsequently, 3 μl of 1 M Tris solution was added to the residue, the mixture was further mixed with 50 μl of extraction buffer (8 M urea, 0.02% 2-mercaptoethanol, 0.002% bromophenol blue) and left stand at room temperature for 1 hour. Then, the reaction mixture was loaded on a spin column (0.45 μm, Millipore) to remove the insoluble solids and a sample buffer for SDS polyacrylamide gel electrophoresis (25 mM, Tris-HCl pH 6.8, 2.5% 2-mercaptoethanol, 2% sodium dodecylsulfate, 5% sucrose, 0.002% bromophenol blue as final concentrations) was added, and 10 μl of each sample was subjected to electrophoresis.
# The gel after the electrophoresis was blotted on a nitrocellulose membrane (BioRad), blocked with 5% skim milk, and reacted successively with antibodies pLC1 (Sakurada K. et al, Am. J. Physiol., 274, C1563-C1572 (1998)), which specifically recognize the phosphorylated myosin regulatory light chain, and donkey anti-mouse IgG (Chemicon) conjugated with horseradish peroxidase. The band of the phosphorylated myosin regulatory light chain was detected on a film by using ECL Plus Kit (Amersham Pharmacia Biotech). This band was subjected to quantification using a densitometer. By using this value, the inhibitory ratio (%) for phosphorylation of the myosin regulatory light chain was calculated by using the following equation. Phosphorylation inhibition ratio(%)=1−(Band intensity of phosphorylated myosin regulatory light chain with addition of the test compound/Band intensity of phosphorylated myosin regulatory light chain without addition of the test compound)×100
# Further, the phosphorylation inhibition ratio was calculated with changing the concentrations of the test compound, and a compound concentration providing an inhibition ratio of 50% was obtained as IC50.
# [4] = system: rabbit normal intraocular pressure; experiment: Intraocular pressure reducing action (Test Example 2); format: in vivo, Japanese white rabbit; conditions: Oryctolagus cuniculus, topical; 3 mM aqueous solution, 50 μl to the left eye; measured after 2, 4 and 6 hours; read-out: intraocular pressure reducing degree (max ΔIOP / intraocular pressure value immediately before administration × 100)
# Experimental: A Japanese white rabbit having a body weight of about 2 kg was placed in a positioner and naturalized for one week before the experiment. An opthalmologic local anesthesant (Benoxil) was administered to both eyes, and then intraocular pressure was measured by using a tonometer (Classic 30, Solan). A 3 mM aqueous solution of a test compound was administered in a volume of 50 μl to the left eye, and the right eye was not treated (control eye). The intraocular pressure values were measured for the left and right eyes immediately before, and 2, 4 and 6 hours after the administration of the aqueous solution of the test compound, and the difference of the measured values for the left and right eyes was considered an intraocular pressure reduction value of the test medicament at each measurement time. The largest difference of the values for the left and right eyes among the measured values at the measurement times (after 2, 4 and 6 hours) was considered the maximum intraocular pressure reduction value (max ΔIOP) of each test medicament. The intraocular pressure reducing degree representing the intraocular pressure reducing action of each test medicament was calculated according to the following formula. Since rabbits show significant daily variation of intraocular pressure, daily variation is added when change of intraocular pressure is measured over time, and the intraocular pressure reducing action may be overestimated. Therefore, we used this calculation method of intraocular pressure reduction value in order to minimize the influence of the variation. Intraocular pressure reducing degree (%)=(max ΔIOP/Intraocular pressure value immediately before administration)×100
# neutrophils = experiment: Neutrophil migration inhibitory action, Boyden Chamber, FMLP (Test Example 3); format: cell-based; conditions: 0.5 h, human neutrophils, FMLP 1 μM, 37° C., 30 minutes, read-out: IC50, compound concentration providing a migration inhibition ratio of 50%
# Experimental: Neutrophils were isolated from 50 to 100 ml of peripheral blood collected from healthy human donors by the method described in Test Example 1 to obtain a cell suspension (8×10^6/ml). Subsequently, solutions of a test compound at various concentrations were introduced into wells of a 96-well plate in a volume of 125 μl per well, the cell suspension of an equivalent volume was added to it and the plate was preincubated at room temperature for 5 minutes. During the preincubation, FMLP (1 μM, Sigma) solution was added to the lower chamber to set Boyden Chamber, the preincubated cell suspension was added to the upper chamber in a volume of 200 μl per well, and the cells were allowed to migrate at 37° C. under 5% carbon dioxide for 30 minutes. The filter after the migration was collected, and the non-migrated cells adhered to the surface that faced the upper chamber were carefully wiped off. Then, the migrated cells on the back surface were stained with DifQuick dye solution (International Reagents), washed with water and dried, and then absorbance was measured at 595 nm. The inhibition ratio against migration (%) of a test compound was calculated by using the following equation: Migration inhibition ratio(%)=(1−Absorbance of the group with addition of test compound/Absorbance of the group without addition of test compound)×100
# Further, the migration inhibitory ratio was calculated with changing the test compound concentration, and a compound concentration providing an inhibition ratio of 50% was obtained as IC50.
compound,measurement,setting,value
"CCCCCCCC(=O)CC[C@@H]1[C@@H](C/C=C\CCCC(=O)OC(C)C)[C@@H](O)C[C@H]1O [isopropyl unoprostone, reference compound]","Max ΔIOP (maximum intraocular pressure reduction value), Table 3",[1]; 0.01 weight % 19-1 compound aqueous solution and/or isopropyl unoprostone (Rescula),4.4 mmHg
"CC(C)(C)NC[C@H](O)COc1nsnc1N1CCOCC1 [timolol maleate, reference compound]","Max ΔIOP (maximum intraocular pressure reduction value), Table 4",[2],1.9 mmHg
"N[C@H]1CCN(S(=O)(=O)c2cccc3cncc(C4CC4)c23)C1 [Example 11-1, (S)-3-Amino-1-(4-cyclopropyl-5-isoquinolinesulfonyl)pyrrolidine]",pIC50,[3],> 5.00
same,inhibition in vivo at 3000 µM,[4],5 to 10%
same,pIC50,neutrophils,4.40 to 5.00
"CN[C@@H]1CCN(S(=O)(=O)c2cccc3cncc(Cl)c23)C1 [Example 32-2, (R)-1-(4-Chloro-5-isoquinolinesulfonyl)-3-(methylamino)pyrrolidine]",pIC50,[3],> 5.00
same,inhibition in vivo at 3000 µM,[4],10 to 20%
same,pIC50,neutrophils,4.40 to 5.00
"CCc1cncc2cccc(S(=O)(=O)N3CC[C@H](N)C3)c12 [Example 23-1, (S)-3-Amino-1-(4-ethyl-5-isoquinolinesulfonyl)pyrrolidine]",pIC50,[3],> 5.00
same,inhibition in vivo at 3000 µM,[4],10 to 20%
same,pIC50,neutrophils,4.40 to 5.00
"CCN[C@H]1CN(CCCOC)S(=O)(=O)c2sc(S(N)(=O)=O)cc21 [brinzolamide hydrochloride, reference compound]","Max ΔIOP (maximum intraocular pressure reduction value), Table 2",[1]; 0.01 weight % 19-1 compound aqueous solution and/or brinzolamide hydrochloride (Azopt),2.3 mmHg
"C#Cc1cncc2cccc(S(=O)(=O)N3CC[C@H](N)C3)c12 [Example 10-1, (S)-3-Amino-1-(4-ethynyl-5-isoquinolinesulfonyl)pyrrolidine]",pIC50,[3],> 5.00
same,inhibition in vivo at 3000 µM,[4],≥ 20%
same,pIC50,neutrophils,4.40 to 5.00
"Cc1cnc(O)c2cccc(S(=O)(=O)N3CC[C@H](N)C3)c12 [Example 25-1, (S)-3-Amino-1-(1-hydroxy-4-methyl-5-isoquinolinesulfonyl)pyrrolidine]",pIC50,[3],> 5.00
same,inhibition in vivo at 3000 µM,[4],10 to 20%
same,pIC50,neutrophils,> 5.00
"Cc1cncc2cccc(S(=O)(=O)N3CC[C@@H](N)C3)c12 [Example 8-2, (R)-3-Amino-1-(4-methyl-5-isoquinolinesulfonyl)pyrrolidine]",pIC50,[3],> 5.00
same,inhibition in vivo at 3000 µM,[4],≥ 20%
same,pIC50,neutrophils,> 5.00
"Cc1cncc2cccc(S(=O)(=O)N3CCC[C@H](N)C3)c12 [Example 22-1, (S)-3-Amino-1-(4-methyl-5-isoquinolinesulfonyl)piperidine]",pIC50,[3],> 5.00
same,inhibition in vivo at 3000 µM,[4],10 to 20%
same,pIC50,neutrophils,4.40 to 5.00
